Results reported in US8394848B2, “Compounds that modulate intracellular calcium” (Calcimedica, Inc., priority 2008, dated 2013).

Test system: JR251 or RBL cells
Assay: Store-operated calcium entry, either JR251 or RBL cells, or both
Assay type: cell-based
Procedure, shortened: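 Orai1/STIM1 stable cells: fluo-4-AM loaded, compound 30 min at RT in Ca2+-free HBSS, then CaCl2 added; IC50 from Peak-Basal FLIPR fluorescence. RBL-2H3 cells: compound 5 min, then thapsigargin (5.5× stock, 5.5 uM) 25 min, then calcium added; IC50 from Upslope (signal 7 s after calcium minus baseline).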

Row | IC50 [µM] | SMILES
1 | < 10 | O=C(O)c1c(-c2ccc(Br)cc2)csc1NC(=O)C1COc2ccccc2C1 (centres unmarked) [4-(4-bromophenyl)-2-(chroman-3-carboxamido)thiophene-3-carboxylic acid]
2 | < 10 | O=C(Nc1scc(-c2ccc(Br)cc2)c1C(=O)O)c1ccco1 [4-(4-bromophenyl)-2-(furan-2-carboxamido)thiophene-3-carboxylic acid]
3 | < 10 | O=C(Nc1scc(-c2ccc(Br)cc2)c1C(=O)O)c1cn2ccccc2n1 [4-(4-bromophenyl)-2-(imidazo[1,2-a]pyridine-2-carboxamido)thiophene-3-carboxylic acid]
4 | < 10 | O=C(O)c1c(-c2ccc(Br)cc2)csc1NC(=O)N1Cc2ccccc2C1 [4-(4-bromophenyl)-2-(isoindoline-2-carboxamido)thiophene-3-carboxylic acid]
5 | < 10 | O=C(Nc1scc(-c2ccc(Br)cc2)c1C(=O)O)c1ccncc1 [4-(4-bromophenyl)-2-(isonicotinamido)thiophene-3-carboxylic acid]
6 | < 10 | O=C(Nc1scc(-c2ccc(Br)cc2)c1C(=O)O)c1cccnc1 [4-(4-bromophenyl)-2-(nicotinamido)thiophene-3-carboxylic acid]
7 | < 10 | O=C(Nc1scc(-c2ccc(Br)cc2)c1C(=O)O)c1cnccn1 [4-(4-bromophenyl)-2-(pyrazine-2-carboxamido)thiophene-3-carboxylic acid]
8 | < 10 | O=C(Nc1scc(-c2ccc(Br)cc2)c1C(=O)O)c1cc2ccccn2n1 [4-(4-bromophenyl)-2-(pyrazolo[1,5-a]pyridine-2-carboxamido)thiophene-3-carboxylic acid]
9 | < 10 | O=C(Nc1scc(-c2ccc(Br)cc2)c1C(=O)O)c1ccnnc1 [4-(4-bromophenyl)-2-(pyridazine-4-carboxamido)thiophene-3-carboxylic acid]
10 | < 10 | O=C(Nc1scc(-c2ccc(Br)cc2)c1C(=O)O)c1ccc2ccccc2n1 [4-(4-bromophenyl)-2-(quinoline-2-carboxamido)thiophene-3-carboxylic acid]
11 | < 10 | O=C(Nc1scc(-c2ccc(Br)cc2)c1C(=O)O)c1cnc2ccccc2n1 [4-(4-bromophenyl)-2-(quinoxaline-2-carboxamido)thiophene-3-carboxylic acid]
12 | < 10 | O=C(CCc1ccccc1)Nc1scc(-c2ccc(Cl)cc2F)c1C(=O)O [4-(4-chloro-2-fluorophenyl)-2-(3-phenylpropanamido)thiophene-3-carboxylic acid]
13 | < 10 | O=C(Nc1scc(-c2ccc(Cl)cc2F)c1C(=O)O)c1nc2cccc(F)c2s1 [4-(4-chloro-2-fluorophenyl)-2-(7-fluorobenzo[d]thiazole-2-carboxamido)thiophene-3-carboxylic acid]
14 | < 10 | O=C(Nc1scc(-c2ccc(Cl)c(F)c2)c1C(=O)O)c1nc2c(F)cccc2o1 [4-(4-chloro-3-fluorophenyl)-2-(4-fluorobenzo[d]oxazole-2-carboxamido)thiophene-3-carboxylic acid]
15 | < 10 | O=C(Nc1scc(-c2ccc(Cl)c(F)c2)c1C(=O)O)c1nc2cccc(F)c2o1 [4-(4-chloro-3-fluorophenyl)-2-(7-fluorobenzo[d]oxazole-2-carboxamido)thiophene-3-carboxylic acid]
16 | < 10 | O=C(O)c1c(-c2ccc(Cl)cc2)csc1NC(=O)C1CCc2ccccc2C1 (centres unmarked) [4-(4-chlorophenyl)-2-(1,2,3,4-tetrahydronaphthalene-2-carboxamido)thiophene-3-carboxylic acid]

Row | IC50 [µM] | SMILES
17 | < 10 | O=C(O)c1c(-c2ccc(Cl)cc2)csc1NC(=O)C1Cc2ccccc21 (centres unmarked) [4-(4-chlorophenyl)-2-(1,2-dihydrocyclobutabenzene-1-carboxamido)thiophene-3-carboxylic acid]
18 | < 10 | Cc1nn(C)c2sc(C(=O)Nc3scc(-c4ccc(Cl)cc4)c3C(=O)O)cc12 [4-(4-chlorophenyl)-2-(1,3-dimethyl-1H-thieno[2,3-c]pyrazole-5-carboxamido)thiophene-3-carboxylic acid]
19 | < 10 | O=C(O)c1c(-c2ccc(Cl)cc2)csc1NC(=O)C1(c2ccc(Cl)cc2)CC1 [4-(4-chlorophenyl)-2-(1-(4-chlorophenyl)cyclopropanecarboxamido)thiophene-3-carboxylic acid]
20 | < 10 | Cn1cnc(C(=O)Nc2scc(-c3ccc(Cl)cc3)c2C(=O)O)c1 [4-(4-chlorophenyl)-2-(1-methyl-1H-imidazole-4-carboxamido)thiophene-3-carboxylic acid]
21 | < 10 | Cn1nc(C(=O)Nc2scc(-c3ccc(Cl)cc3)c2C(=O)O)cc1-c1ccccc1 [4-(4-chlorophenyl)-2-(1-methyl-5-phenyl-1H-pyrazole-3-carboxamido)thiophene-3-carboxylic acid]
22 | < 10 | O=C(Nc1scc(-c2ccc(Cl)cc2)c1C(=O)O)c1cnn(-c2ccccc2)c1 [4-(4-chlorophenyl)-2-(1-phenyl-1H-pyrazole-4-carboxamido)thiophene-3-carboxylic acid]
23 | < 10 | O=C(Nc1scc(-c2ccc(Cl)cc2)c1C(=O)O)c1cnn(-c2ccccc2)c1C(F)(F)F [4-(4-chlorophenyl)-2-(1-phenyl-5-(trifluoromethyl)-1H-pyrazole-4-carboxamido)thiophene-3-carboxylic acid]
24 | < 10 | O=C(O)c1c(-c2ccc(Cl)cc2)csc1NC(=O)C1Cc2ccccc2C1 [4-(4-chlorophenyl)-2-(2,3-dihydro-1H-indene-2-carboxamido)thiophene-3-carboxylic acid]
25 | < 10 | O=C(O)c1c(-c2ccc(Cl)cc2)csc1NC(=O)C1COc2ccccc2O1 (centres unmarked) [4-(4-chlorophenyl)-2-(2,3-dihydrobenzo[b][1,4]dioxine-2-carboxamido)thiophene-3-carboxylic acid]
26 | < 10 | O=C(O)c1c(-c2ccc(Cl)cc2)csc1NC(=O)C1Cc2ccccc2S1 (centres unmarked) [4-(4-chlorophenyl)-2-(2,3-dihydrobenzo[b]thiophene-2-carboxamido)thiophene-3-carboxylic acid]
27 | < 10 | O=C(Nc1scc(-c2ccc(Cl)cc2)c1C(=O)O)c1cc(Cl)sc1Cl [4-(4-chlorophenyl)-2-(2,5-dichlorothiophene-3-carboxamido)thiophene-3-carboxylic acid]
28 | < 10 | Cc1cc(C(=O)Nc2scc(-c3ccc(Cl)cc3)c2C(=O)O)c(C)o1 [4-(4-chlorophenyl)-2-(2,5-dimethylfuran-3-carboxamido)thiophene-3-carboxylic acid]
29 | < 10 | O=C(Nc1scc(-c2ccc(Cl)cc2)c1C(=O)O)c1ccc(Cl)nc1Cl [4-(4-chlorophenyl)-2-(2,6-dichloronicotinamido)thiophene-3-carboxylic acid]
30 | < 10 | COc1ccc(C(=O)Nc2scc(-c3ccc(Cl)cc3)c2C(=O)O)c(OC)n1 [4-(4-chlorophenyl)-2-(2,6-dimethoxynicotinamido)thiophene-3-carboxylic acid]
31 | < 10 | O=C(CC1CCc2ccccc21)Nc1scc(-c2ccc(Cl)cc2)c1C(=O)O (centres unmarked) [4-(4-chlorophenyl)-2-(2-(2,3-dihydro-1H-inden-1-yl)acetamido)thiophene-3-carboxylic acid]
32 | < 10 | O=Cc1sccc1OCC(=O)Nc1scc(-c2ccc(Cl)cc2)c1C(=O)O [4-(4-chlorophenyl)-2-(2-(2-formylthiophen-3-yloxy)acetamido)thiophene-3-carboxylic acid]
